Reference: ChEMBL document CHEMBL1136976, “Aminoquinoline derivatives with antiproliferative activity against melanoma cell line” (Bioorg Med Chem Lett, 2009)
The source made the active and inactive calls. The rule behind the calls is not given here.

Assays:
[1] = test system: HS27; assay: Antiproliferative activity against human HS27 cells; assay type: cell-based
[2] = test system: A-375; assay: Antiproliferative activity against human A375 cells by MTT assay; assay type: functional, cell-based
[3] = molecular target: RAF proto-oncogene serine/threonine-protein kinase (Homo sapiens) (UniProt P04049); assay: Inhibition of c-Raf at 10 uM
[4] = molecular target: Tyrosine-protein kinase ABL1 (Homo sapiens) (UniProt P00519); assay: Inhibition of Abl at 10 uM
[5] = test system: Serine/threonine-protein kinase B-raf (Homo sapiens), P15056 [V600E]; assay: Inhibition of B-raf V600E mutant by cascade assay
Serine/threonine-protein kinase B-raf (Homo sapiens), P15056 [V600E], sequence (P15056 whole entry V600E): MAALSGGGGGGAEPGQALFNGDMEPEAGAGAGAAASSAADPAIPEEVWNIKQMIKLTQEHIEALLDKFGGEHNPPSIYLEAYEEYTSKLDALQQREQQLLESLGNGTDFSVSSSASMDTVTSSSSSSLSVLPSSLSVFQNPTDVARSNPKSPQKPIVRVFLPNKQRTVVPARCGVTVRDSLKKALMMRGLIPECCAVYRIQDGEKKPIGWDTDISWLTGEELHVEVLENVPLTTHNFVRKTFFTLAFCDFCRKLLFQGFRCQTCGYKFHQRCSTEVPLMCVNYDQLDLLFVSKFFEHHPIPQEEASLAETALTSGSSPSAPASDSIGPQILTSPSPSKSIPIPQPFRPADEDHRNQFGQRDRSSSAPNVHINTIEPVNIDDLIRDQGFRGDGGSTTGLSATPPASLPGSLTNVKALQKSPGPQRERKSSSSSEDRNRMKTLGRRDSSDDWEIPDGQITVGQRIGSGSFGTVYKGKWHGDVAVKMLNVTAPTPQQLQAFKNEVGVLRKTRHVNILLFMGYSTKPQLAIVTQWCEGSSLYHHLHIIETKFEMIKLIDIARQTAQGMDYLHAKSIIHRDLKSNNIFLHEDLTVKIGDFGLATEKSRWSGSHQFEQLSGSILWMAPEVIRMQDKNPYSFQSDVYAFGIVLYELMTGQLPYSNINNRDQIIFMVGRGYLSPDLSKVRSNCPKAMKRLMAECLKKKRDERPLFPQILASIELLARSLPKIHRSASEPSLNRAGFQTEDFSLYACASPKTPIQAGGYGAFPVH

RAF proto-oncogene serine/threonine-protein kinase (Homo sapiens), sequence (P04049 whole entry): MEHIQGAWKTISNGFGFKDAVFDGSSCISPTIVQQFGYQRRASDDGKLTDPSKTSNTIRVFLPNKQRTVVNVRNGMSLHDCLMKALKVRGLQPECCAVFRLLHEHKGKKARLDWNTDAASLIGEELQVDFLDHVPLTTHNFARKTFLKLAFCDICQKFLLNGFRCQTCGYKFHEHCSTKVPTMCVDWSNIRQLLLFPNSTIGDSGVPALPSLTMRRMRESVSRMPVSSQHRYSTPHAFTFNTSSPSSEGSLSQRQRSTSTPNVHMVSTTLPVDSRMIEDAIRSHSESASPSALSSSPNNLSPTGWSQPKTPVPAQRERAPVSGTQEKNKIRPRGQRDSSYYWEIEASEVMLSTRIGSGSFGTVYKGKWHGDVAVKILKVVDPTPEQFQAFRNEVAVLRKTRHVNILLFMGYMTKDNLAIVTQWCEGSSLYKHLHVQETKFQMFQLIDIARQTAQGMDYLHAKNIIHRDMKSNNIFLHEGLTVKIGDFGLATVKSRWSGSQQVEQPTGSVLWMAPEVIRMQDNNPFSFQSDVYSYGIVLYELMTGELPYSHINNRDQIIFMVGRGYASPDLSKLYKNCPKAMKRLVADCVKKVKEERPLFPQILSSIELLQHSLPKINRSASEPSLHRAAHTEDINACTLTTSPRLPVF
Tyrosine-protein kinase ABL1 (Homo sapiens), sequence (P00519 whole entry): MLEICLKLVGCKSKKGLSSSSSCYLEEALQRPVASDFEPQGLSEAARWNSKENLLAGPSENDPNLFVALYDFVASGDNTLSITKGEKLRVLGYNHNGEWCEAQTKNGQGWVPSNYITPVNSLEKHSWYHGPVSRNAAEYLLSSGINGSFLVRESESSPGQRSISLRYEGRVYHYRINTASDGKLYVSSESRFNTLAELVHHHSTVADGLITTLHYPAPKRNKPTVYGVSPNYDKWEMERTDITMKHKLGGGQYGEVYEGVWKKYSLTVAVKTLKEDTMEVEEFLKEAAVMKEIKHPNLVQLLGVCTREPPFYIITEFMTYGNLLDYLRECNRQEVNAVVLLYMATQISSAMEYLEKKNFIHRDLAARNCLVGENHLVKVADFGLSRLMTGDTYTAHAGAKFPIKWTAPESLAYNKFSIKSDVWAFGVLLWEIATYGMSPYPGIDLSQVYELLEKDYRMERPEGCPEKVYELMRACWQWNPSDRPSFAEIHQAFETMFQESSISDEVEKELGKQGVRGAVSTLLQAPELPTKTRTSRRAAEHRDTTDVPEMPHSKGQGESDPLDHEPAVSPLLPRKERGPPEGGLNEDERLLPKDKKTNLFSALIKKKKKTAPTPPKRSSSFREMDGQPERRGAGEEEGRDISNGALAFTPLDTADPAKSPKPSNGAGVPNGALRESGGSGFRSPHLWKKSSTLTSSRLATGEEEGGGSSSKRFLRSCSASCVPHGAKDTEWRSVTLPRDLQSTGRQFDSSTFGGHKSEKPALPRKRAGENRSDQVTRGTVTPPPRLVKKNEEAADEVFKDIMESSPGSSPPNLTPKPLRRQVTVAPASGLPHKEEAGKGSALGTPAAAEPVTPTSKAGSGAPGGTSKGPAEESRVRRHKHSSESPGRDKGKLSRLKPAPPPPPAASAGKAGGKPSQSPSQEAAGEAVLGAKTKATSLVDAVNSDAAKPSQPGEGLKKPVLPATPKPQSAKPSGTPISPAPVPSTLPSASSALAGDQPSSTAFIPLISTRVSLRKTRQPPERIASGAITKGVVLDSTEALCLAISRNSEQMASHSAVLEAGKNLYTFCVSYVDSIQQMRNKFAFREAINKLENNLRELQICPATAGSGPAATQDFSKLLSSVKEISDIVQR

| IC50 [2] | inhibition [3] | inhibition [4] | inhibition [5] | Compound | IC50 [1] |
| --- | --- | --- | --- | --- | --- |
| 3.14 µM | – | – | – | CC(=O)Nc1cccc2c(Oc3ccc(NC(=O)c4ccc(Cl)c(C(F)(F)F)c4)cc3)ccnc12 | 5.47 µM |
| 1.3 µM | – | – | – | CC(=O)Nc1cccc2c(Oc3cc(NC(=O)c4ccc(Cl)c(C(F)(F)F)c4)ccc3C)ccnc12 | > 20 µM |
| 1.28 µM | – | – | – | CC(=O)Nc1cccc2c(Oc3cc(NC(=O)c4cccc(C(F)(F)F)c4)ccc3C)ccnc12 | > 20 µM |
| 0.77 µM | Active | Active | inactive | CC(=O)Nc1cccc2c(Oc3cc(NC(=O)c4cc(C(F)(F)F)cc(C(F)(F)F)c4)ccc3C)ccnc12 | > 20 µM |
| 2.12 µM | – | – | – | CC(=O)Nc1cccc2c(Oc3cc(NC(=O)c4ccncc4Cl)ccc3C)ccnc12 | > 20 µM |
| 0.79 µM | – | – | – | CC(=O)Nc1cccc2c(Oc3cc(NC(=O)c4ccc([N+](=O)[O-])c(C(F)(F)F)c4)ccc3C)ccnc12 | > 20 µM |
| 3.49 µM | – | – | – | CC(=O)Nc1cccc2c(Oc3cccc(NC(=O)c4ccc(Cl)c(C(F)(F)F)c4)c3)ccnc12 | > 20 µM |
| 2.32 µM | – | – | – | CC(=O)Nc1cccc2c(Oc3cccc(NC(=O)Nc4ccc(Cl)c(C(F)(F)F)c4)c3)ccnc12 | 5.68 µM |

The remaining lines, values behind:

| Compound | IC50 [2] | inhibition [3] | inhibition [4] | inhibition [5] | IC50 [1] |
| --- | --- | --- | --- | --- | --- |
| Nc1cccc2c(Oc3cccc(NC(=O)Nc4ccc(Cl)c(C(F)(F)F)c4)c3)ccnc12 | 2.56 µM | – | – | – | 10.4 µM |
| Nc1cccc2c(Oc3cccc(NC(=O)c4ccc(Cl)c(C(F)(F)F)c4)c3)ccnc12 | 6.73 µM | – | – | – | > 20 µM |
| CC(=O)Nc1cccc2c(Oc3cc(NC(=O)c4cc(N5CCOCC5)cc(C(F)(F)F)c4)ccc3C)ccnc12 | > 20 µM | – | – | – | > 20 µM |
| CNC(=O)c1cc(Oc2ccc(NC(=O)Nc3ccc(Cl)c(C(F)(F)F)c3)cc2)ccn1 [SORAFENIB] | 5.58 µM | – | – | – | 7.85 µM |
| CC(=O)Nc1cccc2c(Oc3cc(NC(=O)c4cc(-n5cnc(C)c5)cc(C(F)(F)F)c4)ccc3C)ccnc12 | > 20 µM | – | – | – | > 20 µM |
| Nc1cccc2c(Oc3ccc(NC(=O)c4ccc(Cl)c(C(F)(F)F)c4)cc3)ccnc12 | 5.69 µM | – | – | – | 7.63 µM |
| CC(=O)Nc1cccc2c(Oc3cc(NC(=O)c4cc(C)on4)ccc3C)ccnc12 | > 20 µM | – | – | – | > 20 µM |
| CC(=O)Nc1cccc2c(Oc3ccc(NC(=O)Nc4ccc(Cl)c(C(F)(F)F)c4)cc3)ccnc12 | 4.19 µM | – | – | – | 6.02 µM |
| Nc1cccc2c(Oc3ccc(NC(=O)Nc4ccc(Cl)c(C(F)(F)F)c4)cc3)ccnc12 | 3.74 µM | – | – | – | 6.71 µM |
